Assay results as given in patent US20200291100A1, “TREATMENT OF AGE-RELATED AND MITOCHONDRIAL DISEASES BY INHIBITION OF HIF-1 ALPHA FUNCTION” (President and Fellows of Harvard College, priority 2012, published 2020).

Columns and labels:
Type in all cases: cell-based, mouse
primary myoblasts = assay: Lactate treatment of primary WT myoblasts, NAD+/NADH ratio and HIF-1α immunoblot; settings: 10 mM lactate, 24 h
Excerpt: FIGS. 21A-21N provide additional data related to the content of FIG. 14. FIG. 21A depicts HIF-1α target genes (PGK-1, Glut1, PDK1 and Vegfa) expression in gastrocnemius of WT and SIRT1 KO mice. Relative expression values were normalized to WT mice (n=5). FIG. 21B depicts hypoxia response element activity in primary myoblasts isolated from WT and SIRT1 KO mice and treated with or without DMOG. Relative luciferase activity was normalized to WT cells (n=6, *p<0.05 versus WT). FIG. 21C depicts a representative immunoblot of HIF-1a and Tubulin in PGC-1α/β KO myotubes treated with adenovirus overexpressing SIRT1 or empty vector as well as treatment with DMSO or with HIF stabilizing compound DMOG. FIG. 21D depicts NAD+/NADH ration measured in primary WT myoblasts treated with either 10 mM pyruvate, 10 mM lactate or vehicle for 24 h (n=4). […] FIG. 21J depicts mitochondrial DNA content analyzed by qPCR in control, HIF-1α DPA or HIF-2α DPA C2C12 cells treated with adenovirus overexpressing SIRT1 or empty vector. […] FIG. 21K depicts ARNT mRNA analyzed by qPCR in C2C12 cells infected with ARNT or nontargeting shRNA. […] FIG. 21L depicts mitochondrial DNA content analyzed by qPCR in C2C12 cells infected with ARNT or nontargeting shRNA. […] FIG. 21M depicts ND1, Cytb, COX1 and ATP6 mRNA analyzed by qPCR in C2C12 cells infected with ARNT or nontargeting shRNA. […] Values are expressed as mean±SEM. […]

C2C12 cells = assay: SIRT1 inhibition with EX-527 in C2C12 cells; settings: 10 μM EX-527, 12 h
Description: Having shown that HIF-1α stabilization was sufficient to induce genome asynchrony, it was next tested whether it was necessary. […] Knockdown of HIF-1α in C2C12 cells treated with the SIRT1 inhibitor EX-527 prevented genome asynchrony and decline in mitochondrial function, as evidenced by the maintenance of mtDNA content (FIG. 7F), mitochondrial ETC gene expression (FIG. 7G), mitochondrial membrane potential ([…]) and ATP levels (FIG. 7I).
C2C12 cell line (ATCC) was cultured in low glucose Dulbecco's modified eagle medium (DMEM) (Invitrogen) supplemented with 10% FBS (Invitrogen) and a mix of antibiotic and antimycotic (Invitrogen). To inhibit SIRT1, cells were treated the vehicle (0.001% DMSO) or 10 μM EX-527 (Tocris) for 12 h. C2C12 myoblasts were infected with an empty or SIRT1 adenovirus as described before (Gerhart-Hines et al., 2007) and the media was replaced with fresh DMEM for additional 48 h, after that the cells were treated as described before. To test the effects of hypoxia and HIFα stabilization in genome asyncrony, C2C12 myoblasts were exposed to 1% oxygen for 16 h or treated with the vehicle (0.001% DMSO) or DMOG (Cayman) for the same period of time.

PGC-1α/β KO myotubes = assay: EX-527 in PGC-1α/β KO myotubes reconstituted with WT or T177A/S538A PGC-1α, qPCR; settings: EX-527 48 h
Description: (§1) RNA from skeletal muscle tissue and C2C12 cells were extracted with RNeasy mini kit (Qiagen) according to the instructions and quantified using the NanoDrop 1000 spectrophotometer (Thermo Scientific). cDNA was synthesized with the iSCRIP cDNA synthesis kit (BioRad) using 600 ng of RNA. Quantitative RT-PCR reactions were performed using 1 μM of primers and LightCycler® 480 SYBR Green Master (Roche) on an LightCycler® 480 detection system (Roche). Calculations were performed by a comparative method (2-ΔCT) using 18S as an internal control. For mtDNA analysis, total DNA was extracted with DNeasy blood and tissue kit (Qiagen). mtDNA was amplified using primers specific for the mitochondrial cytochrome c oxidase subunit 2 (COX2) gene and normalized to genomic DNA by amplification of the ribosomal protein s18 (rps18) nuclear gene. Primers were designed using the IDT software (IDT) and the primer sequences can be found in Table 1.
AMPK-DN blocked the decrease in nuclear-encoded genes observed 48 h after treatment with OHT, but not the decline in mitochondrial-encoded genes (FIG. 13G). In order to determine if this AMPK affect is through PGC-1α PGC-1α/β KO myotubes were reconstituted with either a WT PGC-1α or an AMPK insensitive version of PGC-1α (PGC-1α T177A/S538A) (FIG. 20F). […]

[1] = test system: primary PGC-1α/β KO myotubes; assay: NMN with or without HIF stabilizing compounds in PGC-1α/β KO myotubes, qPCR of mitochondrially-encoded ETC genes; settings: HIF stabilizing compound added to NMN-treated cells; 1 mM DMOG or 10 μM DFO, 12 hours
Description: As a functional test of whether NMN reverses genome asynchrony by depleting cells of HIF-1α, primary PGC-1α/β KO myotubes were incubated with NMN in the presence and absence of the HIF stabilizing compounds DMOG and DFO. […] Primary myoblasts cells were isolated from WT, SIRT1 KO (Price et al., 2012) and PGC-1α/β KO (Zechner et al., 2010) mice as previously described (Price et al., 2012). WT and PGC-1α/β KO primary myoblasts were plated and allowed to differentiate into myotubes by replacing the media with low glucose DMEM supplemented with 2% horse serum (Sigma-Aldrich) for 4 days. After the differentiation the cells were infected with empty vector or flag-SIRT1 adenovirus as described before ([…] al., 2007). Media was replaced with fresh DMEM supplemented with 2% horse serum (Sigma-Aldrich) for an additional 48 hr and, after that the cells were harvested for the different assays as described. […] Quantitative RT-PCR reactions were performed using 1 μM of primers and LightCycler® 480 SYBR Green Master (Roche) on an LightCycler® 480 detection system (Roche). Calculations were performed by a comparative method (2-ΔCT) using 18S as an internal control. For mtDNA analysis, total DNA was extracted with DNeasy blood and tissue kit (Qiagen). mtDNA was amplified using primers specific for the mitochondrial cytochrome c oxidase subunit 2 (COX2) gene and normalized to genomic DNA by amplification of the ribosomal protein s18 (rps18) nuclear gene. Primers were designed using the IDT software (IDT) and the primer sequences can be found in Table 1.

[2] = test system: PGC-1α/β knockout myotubes; assay: HIF stabilizing compounds in PGC-1α/β knockout myotubes with or without SIRT1 overexpression; settings: SIRT1 adenovirus; 1 mM DMOG or 10 μM DFO, 12 hours
Description: Next whether the ability of SIRT1 to regulate mitochondrial function independently of PGC-1α/β is mediated by HIF-1α was tested. […] Furthermore, cells expressing a mutant allele of HIF-1α that is constitutively stabilized due to the replacement of the two hydroxylated prolines with alanines (DPA) (FIG. 7A), caused genome asynchrony similar to hypoxia and treatment with DMOG (FIG. 7B).
Primary myoblasts cells were isolated from WT, SIRT1 KO (Price et al., 2012) and PGC-1α/β KO (Zechner et al., 2010) mice as previously described (Price et al., 2012). WT and PGC-1α/β KO primary myoblasts were plated and allowed to differentiate into myotubes by replacing the media with low glucose DMEM supplemented with 2% horse serum (Sigma-Aldrich) for 4 days. After the differentiation the cells were infected with empty vector or flag-SIRT1 adenovirus as described before (Gerhart-Hines et al., 2007). Media was replaced with fresh DMEM supplemented with 2% horse serum (Sigma-Aldrich) for an additional 48 hr and, after that the cells were harvested for the different assays as described. To investigate the role of HIF-1α in genome asynchrony, PGC-1α/β KO primary myotubes were treated for 12 hours with 1 mM DMOG (Sigma) or 10 μM DFO (Sigma), 24 h after infection with empty vector of flag-SIRT1 adenovirus or after 12 h treatment with […] NMN (Sigma).
as §1, with “Primers were designed using the IDT software (IDT) and the primer sequences can be found in Table 1.” left out
Protein extracts from tissue or C2C12 cells were obtained by lysis in ice-cold lysis buffer (150 mM NaCl, 10 mM Tris HCl (pH 7.4), 1 mM EDTA, 1 mM EGTA, 1% Triton X-100, 0.5% NP-40) supplemented with a cocktail of protease and phosphatase inhibitors (Roche). Protein content was determined by the Bradford protein assay (Biorad), and 50 μg proteins were run on SDS-PAGE under reducing conditions. […] The immunostaining was detected using horseradish peroxidase-conjugated anti-rabbit or anti-mouse immunoglobulin for 1 h at room temperature.

## CC(O)C(=O)O (stereo not shown) [lactate]
Primary myoblasts
  HIF-1α protein (immunoblot): induces HIF-1α protein stabilization
  NAD+/NADH ratio: decreasing

## NC(=O)C1CCCc2c1[nH]c1ccc(Cl)cc21 (stereo not shown) [EX-527]
C2C12 cells
  genome asynchrony: induced
PGC-1α/β KO myotubes; in the presence of WT PGC-1α
  expression of nuclear- and mitochondrial-encoded genes: decreased both nuclear- and mitochondrial-encoded genes
PGC-1α/β KO myotubes; in the presence of the PGC-1α T177A/S538A mutant
  expression of nuclear- and mitochondrial-encoded genes: only the mitochondrial-encoded genes decreased

## CC(=O)N(O)CCCCCNC(=O)CCC(=O)N(O)CCCCCNC(=O)CCC(=O)N(O)CCCCCN [DFO, desferrioxamine]
[1]
  effect on NMN-induced expression of mitochondrially-encoded ETC genes: completely abolished
[2]
  effect on induction of mitochondrial ETC genes by SIRT1 overexpression: completely blocked
